In the test the test system is recombinant NL-Rluc virus. Kind of test: Inhibition of HIV Replication: recombinant NL-Rluc virus, Renilla luciferase reporter. It is filed as cell-based. The settings on record: read-out: Cell Culture, serum condition of the table not stated (10% FBS, 15 mg/ml human serum albumin/10% FBS or 40% human serum/5% FBS), at least 2 experiments. (In general: A reporter such as luciferase makes a cellular process visible.)

Turning to `CC(=O)NC12CCC(NC(=O)C(=O)N(C)C)(CC1)c1nc(C(=O)NCc3ccc(F)c(C)c3)c(O)c(=O)n1C2` [Example 90], the EC50 is less than 10 nM.

The values are drawn from patent US8835411B2, “HIV integrase inhibitors” (priority 2010, dated 2014).
